For 14 compounds, IC50 and inhibition results are on record in ChEMBL document CHEMBL5325474, “Di-indenopyridines as topoisomerase II-selective anticancer agents: Design, synthesis, and structure-activity relationships” (Bioorg Med Chem, 2023).

One assay relates to DU-145. The assay is described as follows: Antiproliferative activity against human DU-145 cells incubated for 72 hrs by microplate reader analysis. Format: functional, cell-based. The note with it: DU-145, 72 h.
The target in assay [1] is DNA topoisomerase 2-alpha (Homo sapiens) (UniProt P11388). The assay is described as follows: Inhibition of human DNA topoisomerase 2 alpha at 100 uM using supercoiled pBR322 DNA as substrate incubated for 30 mins by EtBr staining based agarose gel electrophoresis method relative to control.
Chain of DNA topoisomerase 2-alpha (Homo sapiens) (P11388 whole entry): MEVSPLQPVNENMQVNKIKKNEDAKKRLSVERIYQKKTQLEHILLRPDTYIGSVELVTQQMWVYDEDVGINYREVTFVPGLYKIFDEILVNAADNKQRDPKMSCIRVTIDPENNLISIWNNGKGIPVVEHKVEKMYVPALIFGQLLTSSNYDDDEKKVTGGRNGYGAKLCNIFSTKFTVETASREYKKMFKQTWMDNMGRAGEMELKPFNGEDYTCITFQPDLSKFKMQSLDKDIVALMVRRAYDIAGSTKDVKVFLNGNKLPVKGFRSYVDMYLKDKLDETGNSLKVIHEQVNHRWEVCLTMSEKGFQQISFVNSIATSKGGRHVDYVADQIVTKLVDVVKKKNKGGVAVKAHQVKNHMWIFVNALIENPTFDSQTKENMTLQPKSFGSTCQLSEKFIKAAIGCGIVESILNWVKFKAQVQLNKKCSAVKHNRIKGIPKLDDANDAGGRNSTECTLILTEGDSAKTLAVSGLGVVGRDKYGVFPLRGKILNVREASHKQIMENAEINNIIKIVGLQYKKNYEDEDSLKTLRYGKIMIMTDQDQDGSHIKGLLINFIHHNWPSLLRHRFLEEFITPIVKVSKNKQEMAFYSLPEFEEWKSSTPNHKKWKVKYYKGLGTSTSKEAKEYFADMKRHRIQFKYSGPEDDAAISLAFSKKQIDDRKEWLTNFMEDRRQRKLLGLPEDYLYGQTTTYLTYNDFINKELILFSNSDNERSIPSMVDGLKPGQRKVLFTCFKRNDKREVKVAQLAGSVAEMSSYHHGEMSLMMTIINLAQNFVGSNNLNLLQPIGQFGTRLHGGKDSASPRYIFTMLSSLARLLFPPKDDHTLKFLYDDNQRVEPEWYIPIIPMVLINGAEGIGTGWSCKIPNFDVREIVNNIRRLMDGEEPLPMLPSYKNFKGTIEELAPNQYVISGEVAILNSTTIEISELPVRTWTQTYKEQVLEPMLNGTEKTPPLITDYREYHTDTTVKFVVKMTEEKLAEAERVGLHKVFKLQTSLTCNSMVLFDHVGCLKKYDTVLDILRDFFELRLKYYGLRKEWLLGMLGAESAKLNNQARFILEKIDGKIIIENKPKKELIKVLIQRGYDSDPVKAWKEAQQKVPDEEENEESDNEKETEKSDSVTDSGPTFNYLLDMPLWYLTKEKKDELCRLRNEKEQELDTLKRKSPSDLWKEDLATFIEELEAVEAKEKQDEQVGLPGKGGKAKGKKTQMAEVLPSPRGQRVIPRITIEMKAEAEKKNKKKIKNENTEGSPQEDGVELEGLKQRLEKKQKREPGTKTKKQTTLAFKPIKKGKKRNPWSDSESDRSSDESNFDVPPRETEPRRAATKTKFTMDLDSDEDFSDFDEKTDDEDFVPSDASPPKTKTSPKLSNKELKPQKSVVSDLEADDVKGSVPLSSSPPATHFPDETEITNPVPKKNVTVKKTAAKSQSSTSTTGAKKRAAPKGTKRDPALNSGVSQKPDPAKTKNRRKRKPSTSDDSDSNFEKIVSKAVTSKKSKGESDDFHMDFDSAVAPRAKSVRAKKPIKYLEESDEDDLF
In another assay the test system is HCT-15. As to the kind of experiment: Antiproliferative activity against human HCT-15 cells incubated for 72 hrs by microplate reader analysis. The following applies: HCT-15, 72 h. The format is functional, cell-based.
The test system of a further assay is T47D. As to the kind of experiment: Antiproliferative activity against human T47D cells incubated for 72 hrs by microplate reader analysis. Format: functional, cell-based.
In another assay the test system is HeLa. The assay is described as follows: Antiproliferative activity against human HeLa cells incubated for 72 hrs by microplate reader analysis. The format is functional, cell-based.
Assay [2] deals with DNA topoisomerase 2-alpha (Homo sapiens) (UniProt P11388). The assay is described as follows: Inhibition of human DNA topoisomerase 2 alpha at 20 uM using supercoiled pBR322 DNA as substrate incubated for 30 mins by EtBr staining based agarose gel electrophoresis method relative to control.

`Oc1ccc(-c2c3c(nc4c2Cc2cccc(O)c2-4)-c2c(O)cccc2C3)cc1`: the IC50 (in general, the midpoint of a concentration-inhibition curve) came to 0.89 µM in the assay on DU-145, 0.95 µM with HCT-15, 4.33 µM in the assay with T47D and 2.96 µM in the assay on HeLa. Also, the inhibition (in general, the percentage by which the read-out fell short of the control) in assay [1] stood at 43.6%; in assay [2] it was 31.7%.
`Oc1ccc(-c2c3c(nc4c2Cc2ccc(O)cc2-4)-c2cc(O)ccc2C3)cc1`: the IC50 in the assay on DU-145 is > 50 µM; with HCT-15 it was 27.8 µM; with T47D, 5.24 µM; in the assay on HeLa it was 20.4 µM. Moreover, the inhibition came to 84.2% in assay [1] and 78% in assay [2].
Regarding `Oc1cccc(-c2c3c(nc4c2Cc2cc(O)ccc2-4)-c2ccc(O)cc2C3)c1`, the IC50 in the assay with DU-145, in the assay on HCT-15, in the assay with T47D and with HeLa was > 50 µM in each case. For the same compound, the inhibition in assay [1] came to 56.8%; in assay [2], 40.8%.
On to `Oc1ccc2c(c1)Cc1c-2nc2c(c1-c1ccccc1O)Cc1cc(O)ccc1-2`, for which the half-maximal inhibitory concentration (IC50) was 31.4 µM with DU-145, 46.1 µM in the assay on HCT-15, > 50 µM with T47D and 22.5 µM with HeLa. The figures for the inhibition in assay [1] and in assay [2] were 93.3% and 7.5%, respectively.
As for `Oc1ccc2c(c1)-c1nc3c(c(-c4ccccc4O)c1C2)Cc1ccc(O)cc1-3`, the IC50 in the assay on DU-145 was 7.86 µM; in the assay with HCT-15 it was 3.86 µM; with T47D, 8.86 µM; with HeLa it was 5.39 µM. In addition, the figures for the inhibition in assay [1] and in assay [2] were 90.3% and 65.9%, respectively.
As to `CC[C@@]1(O)C(=O)OCc2c1cc1n(c2=O)Cc2cc3ccccc3nc2-1` [CAMPTOTHECIN], the IC50 with DU-145 was 0.61 µM.
`Oc1ccccc1-c1c2c(nc3c1Cc1cccc(O)c1-3)-c1c(O)cccc1C2`: the IC50 in the assay on DU-145 stood at 1.81 µM; with HCT-15 it was 4.84 µM; with T47D, 3.82 µM; in the assay with HeLa, 1.56 µM. Besides, the inhibition in assay [1] is -0%.
As to `COc1cccc2c1C(=O)c1c(O)c3c(c(O)c1C2=O)C[C@@](O)(C(=O)CO)C[C@@H]3O[C@H]1C[C@H](N)[C@H](O)[C@H](C)O1` [DOXORUBICIN], the IC50 was determined as 5.53 µM with DU-145, 3.53 µM in the assay with HCT-15, 2.53 µM in the assay with T47D and 1.68 µM in the assay on HeLa.
As for `Oc1cccc(-c2c3c(nc4c2Cc2cccc(O)c2-4)-c2c(O)cccc2C3)c1`, the IC50 was 2.58 µM with DU-145, 0.96 µM in the assay on HCT-15, 6.84 µM in the assay with T47D and 0.87 µM with HeLa. In assay [1], the inhibition was 26%.
Take `Oc1ccccc1-c1c2c(nc3c1Cc1c(O)cccc1-3)-c1cccc(O)c1C2`: the IC50 is > 50 µM in the assay on DU-145, 8.69 µM in the assay on HCT-15, 5.3 µM in the assay on T47D and 2.1 µM in the assay on HeLa. For the same compound, the inhibition came to 77.1% in assay [1] and 41.8% in assay [2].
For `Oc1cccc(-c2c3c(nc4c2Cc2ccc(O)cc2-4)-c2cc(O)ccc2C3)c1`, the concentration for half-maximal inhibition (IC50) in the assay with DU-145, in the assay with HCT-15, in the assay on T47D and in the assay on HeLa was > 50 µM throughout. Also, in assay [1], the inhibition amounted to 22.5%.
For `Oc1ccc(-c2c3c(nc4c2Cc2cc(O)ccc2-4)-c2ccc(O)cc2C3)cc1`, the IC50 with DU-145 was > 50 µM; in the assay with HCT-15 it was > 50 µM; in the assay with T47D, 6.38 µM; in the assay with HeLa, > 50 µM. Besides, the inhibition amounted to 73.1% in assay [1] and 55.7% in assay [2].
For `Oc1ccc(-c2c3c(nc4c2Cc2c(O)cccc2-4)-c2cccc(O)c2C3)cc1`, the IC50 with DU-145 came to 5.03 µM; in the assay on HCT-15, 4.89 µM; in the assay with T47D, 3.34 µM; in the assay with HeLa, 0.94 µM. Moreover, the inhibition in assay [1] was found to be 13.9%.
On to `COc1cc([C@@H]2c3cc4c(cc3[C@@H](O[C@@H]3O[C@@H]5CO[C@@H](C)O[C@H]5[C@H](O)[C@H]3O)[C@H]3COC(=O)[C@H]23)OCO4)cc(OC)c1O` [ETOPOSIDE], for which the IC50 in the assay with DU-145 was 9.87 µM; with HCT-15 it was 1.97 µM; in the assay on T47D, 0.97 µM; with HeLa, 3.38 µM.
